The source of these data is patent publication US8314150B2, “Kinase protein binding inhibitors” (priority 2008, dated 2012).

The test system of the experiment is Panc-1 and Miapaca-2 pancreatic cancer cells. The experiment is described as follows: MTT cell viability assay, pancreatic cancer cells. It is filed as cell-based, human. The settings on record: 72 hours. The procedure: The 3-(4,5-dimethylthiazol-2-yl)-5-(3-carboxymethoxyphenyl)-2-(4-sulfophenyl)-2H-tetrazolium compound from Promega Viability kit (Madison, Ill.) was added, and the cells were incubated at 37° C. for 1-2 hours. The optical density on 96-plate was analyzed with a microplate reader at 490 nm to determine cell viability. In addition, cells were stained with trypan blue after 24 hours of treatment with Y15 and the percent of cells that stained positive were determined with a hemacytometer. Cell adhesion assay—The poly-L-Lysine or Collagen (5 μg/ml) coated 96-well plates were blocked with the blocking buffer (medium with 0.5% BSA) for 1 hour at 37 C. […] Then 2% SDS was added to the dried plated and OD at 590 nm was measured for detecting cell adhesion. […] Protein concentrations were determined using a Bio-Rad Kit. The boiled samples were loaded on Ready SDS-10% PAGE gels (Bio Rad, Inc) and used for Western blot analysis with the protein-specific antibody. […] Detachment Assay—Cells were plated with and without inhibitors for 24 hours, and detached and attached cells were counted in a hemocytometer. We calculated the percent of detachment by dividing the number of detached cells by the total number of cells. The percent of detached cells was calculated in three independent experiments. […] For each experiment 300 cells per treatment were counted. […]
On the technique in general: Tetrazolium assays rely on reduction of a dye to a coloured formazan, in cell work by metabolically active cells.

As to `Cl.Cl.Cl.Cl.Nc1cc(N)c(N)cc1N` [Y15, 1,2,4,5-benzenetetraamine tetrahydrochloride], the “dose from which cell viability was inhibited” value is 1 µM.
